{
  "source": "patent US20200255714A1",
  "about": "“HYDROFLUOROEPOXIDE CONTAINING COMPOSITIONS AND METHODS FOR USING SAME” (3M INNOVATIVE PROPERTIES COMPANY, priority 2017, published 2020)",
  "format_in_all_cases": "physicochemical",
  "key": {"[1]": {"experiment": "Vapor pressure by stirred-flask ebuilliometer method (ASTM E 1719-97)", "protocol": "Vapor Pressure was measured using the stirred-flask ebuilliometer method described in ASTM E 1719-97 “Vapor Pressure Measurement by Ebuilliometry.” This method is also referred to as “Dynamic Reflux.” The method uses a 50-mL glass round-bottom flask. Vacuum was measured and controlled using a J-KEM vacuum controller (J-KEM Scientific, Saint Louis, Mo., US). The pressure transducer was calibrated on the day of measurement by comparison with full vacuum and with an electronic barometer. The procedure was to begin slowly heating the material, then vacuum was applied until boiling occurred and a steady drop wise reflux rate was established. Pot temperature and pressure reading were recorded, then the vacuum controller was set for a higher absolute pressure and the material was heated further until a new reflux point was established. The pressure level was raised in increments until the vapor pressure curve was obtained up to the atmospheric boiling point. The boiling point of PE1 at 760 mmHg was 238.3° C."}, "[2]": {"experiment": "Kinematic viscosity by Ubbelohde capillary viscometer", "protocol": "Kinematic Viscosity was measured using glass SCHOTT Ubbelohde capillary viscometers (Xylem, Inc., Germany). The viscometers were timed using a SCHOTT AVS 350 viscosity timer. For a temperature of 10° C., a Lawler temperature control bath was used (Lawler Manufacturing Corp., Edison, N.J., US). The viscometer measurement stand and glass viscometer were immersed in a temperature-controlled liquid bath filled with NOVEC 7500 (3M Company, Saint Paul, Minn., US) as the bath fluid. The Lawler temperature bath was fitted with a copper tubing coil for liquid nitrogen cooling with fine temperature control provided by the bath's electronic temperature control heater. The fluid was mechanically stirred to provide uniform temperature in the bath. The bath controlled temperature to within ±0.1° C., as measured by the built-in resistance temperature detector (RTD) temperature sensor. The sample liquid was added to the viscometer between the two fill lines etched on the viscometer. The AVS-350 automatically pumped the sample fluid above the upper timing mark, then released the fluid and measured the efflux times between the upper and lower timing marks. The fluid meniscus was detected by optical sensors as it passed each timing mark. The sample was drawn up and measured repeatedly, averaging multiple measurements. The glass viscometers were calibrated using Canon certified kinematic viscosity standard fluids to obtain a calibration constant (centistokes per second) for each viscometer. The measured kinematic viscosity (centistokes), was calculated as the average efflux time (seconds) times the constant (centistokes/second) for the viscometer used."}, "[3]": {"experiment": "Thermal stability under air sparging at elevated temperature (GC analysis)", "conditions": "72 hour stir at 215° C.-220° C., sparging by air 0.4 L/min", "protocol": "To a 3-neck 250 mL round bottom flask equipped with a water-cooled condenser, temperature probe, magnetic stir bar, and a ⅛ inch FEP tube connected to 10 micron steel frit was charged 2,3-bis(3,3,4,4,5,5,5-heptafluoro-2,2-bis(trifluoromethyl)pentyl) oxirane (70.4 g, 99 mmol). Sparging by air through the 10 micron steel frit at a rate of 0.4 L/min commenced and the internal temperature was slowly raised to 220° C. with stirring. After a 72 hour stir with the temperature held between 215° C.-220° C., the material was allowed to cool to room temperature."}, "[4]": {"experiment": "Chemical stability with absorbents at 65° C. (GC-FID)", "conditions": "16 hours, initial starting material 99.6", "protocol": "The chemical stability was evaluated by charging a weighed amount of Preparatory Example PE1 into glass vials and then adding a weighed amount of absorbent. The samples were stirred with heating at 65° C. for 16 hours and then analyzed by GC-FID to determine whether any breakdown products were formed and whether the level of purity changed."}},
  "data": [
    {"smiles": "FC(F)(F)C(F)(F)C(F)(F)C(CC1OC1CC(C(F)(F)F)(C(F)(F)F)C(F)(F)C(F)(F)C(F)(F)F)(C(F)(F)F)C(F)(F)F", "note": "(stereo not shown) [PE1, 2,3-bis(3,3,4,4,5,5,5-heptafluoro-2,2-bis(trifluoromethyl)pentyl)oxirane]", "values": [
      {"measurement": "Vapor pressure", "setting": "[1]; 20 ° C.", "result": 0.026, "unit": "mmHg"},
      {"measurement": "Vapor pressure", "setting": "[1]; 55 ° C.", "result": 0.35, "unit": "mmHg"},
      {"measurement": "Vapor pressure", "setting": "[1]; 78.6 ° C.", "result": 1.5, "unit": "mmHg"},
      {"measurement": "Vapor pressure", "setting": "[1]; 170.7 ° C.", "result": 96.6, "unit": "mmHg"},
      {"measurement": "Vapor pressure", "setting": "[1]; 204.3 ° C.", "result": 296.9, "unit": "mmHg"},
      {"measurement": "Vapor pressure", "setting": "[1]; 214.7 ° C.", "result": 397.1, "unit": "mmHg"},
      {"measurement": "Vapor pressure", "setting": "[1]; 237.7 ° C.", "result": 731.3, "unit": "mmHg"},
      {"measurement": "boiling point", "setting": "[1]; at 760 mmHg", "result": 238.3, "unit": "°C"},
      {"measurement": "Kinematic Viscosity", "setting": "[2]; 10.0 ° C.", "result": 146.42, "unit": "cSt"},
      {"measurement": "Kinematic Viscosity", "setting": "[2]; 25.0 ° C.", "result": 36.22, "unit": "cSt"},
      {"measurement": "Kinematic Viscosity", "setting": "[2]; 30.0 ° C.", "result": 25.87, "unit": "cSt"},
      {"measurement": "Kinematic Viscosity", "setting": "[2]; 40.0 ° C.", "result": 14.49, "unit": "cSt"},
      {"measurement": "content of starting material in final mixture (GC analysis)", "setting": "[3]", "result": "approximately 99.4%"},
      {"measurement": "decomposition (GC analysis)", "setting": "[3]", "result": "no decomposition"},
      {"measurement": "GC-FID purity (%)", "setting": "[4]; 4 Å molecular sieves", "result": 99.6, "unit": "%"},
      {"measurement": "GC-FID purity (%)", "setting": "[4]; Activated carbon", "result": 98.4, "unit": "%"},
      {"measurement": "GC-FID purity (%)", "setting": "[4]; Basic alumina", "result": 99.7, "unit": "%"},
      {"measurement": "GC-FID purity (%)", "setting": "[4]; Potassium carbonate", "result": 99.6, "unit": "%"},
      {"measurement": "GC-FID purity (%)", "setting": "[4]; Silica gel", "result": 99.6, "unit": "%"}
    ]}
  ]
}
